According to patent US10226452B2, “Benzoxazolone derivatives as acid ceramidase inhibitors, and their use as medicaments” (FONDAZIONE ISTITUTO ITALIANO DI TECNOLOGIA, priority 2014, dated 2019):
“Also recorded” adds a separate entry of the source.

How the values were obtained:
[1] = biological target: T1, AC (Mus musculus (Mouse), UniProt Q9WV54); test: AC activity ex vivo in mouse tissues after systemic administration; conditions: mice
Procedure: Specifically, it is evidences the effects of compound of Example 7 or vehicle (15% polyethylene glycol, 15% Tween80, 70% saline) on AC activity in mouse lungs. AC activity measured ex vivo 30 minutes or 3 hours after intraperitoneal injection of compound of Example 7 (10 mg-kg^−1). Results are expressed as mean±s.e.m. (n=6). ***p<0.001 vs vehicle, one-way ANOVA followed by Dunnet.
Specifically, FIG. 7 illustrates the effects of compound of Example 25 or vehicle (15% polyethylene glycol, 15% Tween80, 70% saline) on AC activity in mouse lungs (oral administration, A) or cerebral cortex (intraperitoneal administration, B) and on ceramide levels (C and D). Results are expressed as mean±s.e.m. (n=6). *p<0.05, **p<0.01, ***p<0.001 vs vehicle, one-way ANOVA followed by Dunnet.
hAC protein preparation (10 μg) was preincubated with inhibitors (final DMSO concentration 1%) in assay buffer (100 mM sodium phosphate, 0.1% Nonidet P-40, 150 mM NaCl, 3 mM DTT, 100 mM sodium citrate, pH 4.5) for 30 min at 37° C. Reactions were started by the addition of 50 μM N-lauroyl ceramide (Nu-Chek Prep, Elysian, Minn.) and carried on for 30 min at 37° C. Reactions were stopped by addition of a mixture of chloroform/methanol (2:1, vol/vol) containing 1 nmol 11-lauroleic acid (NuChek Prep). The organic phases were collected, dried under nitrogen and analyzed by UPLC/MS (Acquity, Waters). In the negative-ion mode monitoring the reaction product (lauric acid, m/z=199) using 11-lauroleic acid as internal standard.

[2] = biological target: T1, AC; test: AC activity in RAW264.7 murine cell line; assay type: cell-based; conditions: Raw264.7 cells; 0.1-20 μM; 3 hours
Procedure: Specifically it is reported the concentration response of compound of Example 25 or vehicle (0.1% DMSO in DMEM) on AC activity and ceramide levels in RAW264.7 murine cell line. (A) Intact cells were treated with compound of Example 25 (0.1-20 μM) or vehicle and AC activity was measured 3 hours later in cell lysates. (B-E) Intact cells were exposed to compound of Example 25 (0.1-20 μM) for 3 hours and sphingosine/sphinganine (B), dihydroceramides (C), medium chain ceramides (D), long chain ceramides (E) were quantified. Results are expressed as mean±s.e.m. (n=3). *p<0.05, **p<0.01, ***p<0.001 vs vehicle, two-way ANOVA followed by Dunnet.
hAC protein preparation (10 μg) was preincubated with inhibitors (final DMSO concentration 1%) in assay buffer (100 mM sodium phosphate, 0.1% Nonidet P-40, 150 mM NaCl, 3 mM DTT, 100 mM sodium citrate, pH 4.5) for 30 min at 37° C. Reactions were started by the addition of 50 μM N-lauroyl ceramide (Nu-Chek Prep, Elysian, Minn.) and carried on for 30 min at 37° C. […] The organic phases were collected, dried under nitrogen and analyzed by UPLC/MS (Acquity, Waters). […]
The [M−H]^− ion was monitored in the selected-ion monitoring mode (m/z values: lauric acid 199, 11-lauroleic acid 197.35). […] Inhibition of AC activity was calculated as reduction of lauric acid in the samples compared to vehicle controls. […]

[3] = test system: MAG-hydrolyzing enzymes including MGL, HSL and EL; test: MAG-hydrolysing activity ex vivo in mice; design: species or system mouse; conditions: 10 mg-kg^−1 intraperitoneal, 3 h after injection
Procedure: Compound of Example 25 was also tested for its ability to inhibit the hydrolytic degradation of diacylglycerols (DAG) and monoacylglycerols (MAG) in live mice. DAG and MAG hydrolysis is catalyzed by multiple serine lipases, including diacylglycerol lipase (DGL), monoacylglycerol lipase (MGL), hormone-sensitive lipase (HSL), and endothelial lipase. Thus, by monitoring the effects of compound of Example 25 on MAG-hydrolysing activity as well as DAG and MAG levels ex vivo, we can gain important insights as to the ability of the compound to interfere with those lipases in a physiologically relevant setting.
Specifically FIG. 8 evidences the effect of Example 25 or vehicle (DMSO) on MGL activity in brain, liver, fat and heart. MAG-hydrolysing activity was measured 3 h after intraperitoneal injection of compound of Example 25 (10 mg-kg-1). Results are expressed as mean±s.e.m. (n=5).
Tissue was homogenized in ice-cold Tris-HCl (50 mM, pH7.5, 10 vol) containing sucrose (0.32 M). Homogenates were centrifuged at 1,000×g for 10 min, and the supernatants (5 μg of protein) were incubated at 37° C. for 30 min in Tris.HCl (50 mM, pH 7.5, 0.5 mL) containing 10 μM oleoylglycerol (Sigma-Aldrich, St. Louis, Mo.). […] The residues were suspended in 100 μL of chloroform/methanol (1:3, v:v) and analyzed by LC-MS.

T1 sequence (Q9WV54 19-141): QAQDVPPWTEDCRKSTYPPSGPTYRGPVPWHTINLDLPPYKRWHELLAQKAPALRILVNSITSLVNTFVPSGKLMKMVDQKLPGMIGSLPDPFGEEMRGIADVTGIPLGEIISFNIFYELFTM
T1 sequence (Q9WV54 142-394): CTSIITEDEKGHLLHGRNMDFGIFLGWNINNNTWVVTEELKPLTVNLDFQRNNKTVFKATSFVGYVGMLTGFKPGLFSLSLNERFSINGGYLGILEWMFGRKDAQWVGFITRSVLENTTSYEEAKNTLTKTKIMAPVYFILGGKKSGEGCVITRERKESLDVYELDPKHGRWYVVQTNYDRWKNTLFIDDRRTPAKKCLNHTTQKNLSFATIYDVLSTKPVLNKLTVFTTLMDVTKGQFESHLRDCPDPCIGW

| Structure (SMILES) | AC activity in lungs ([1]; 3 or 10 mg-kg^−1, intraperitoneal or oral (FIG. 7A oral)) | AC activity in brain cortex ([1]; 3 or 10 mg-kg^−1, intraperitoneal or oral (FIG. 7B intraperitoneal)) | AC activity [2] | MAG-hydrolysing activity in brain, liver, fat and heart [3] | AC activity in lungs ([1]; 10 mg-kg^−1 intraperitoneal, after 30 minutes or 3 hours) |
| --- | --- | --- | --- | --- | --- |
| O=C(NCCCCc1ccccc1)n1c(=O)oc2cc(-c3ccc(F)cc3)ccc21 [Example 25, 6-(4-Fluorophenyl)-2-oxo-N-(4-phenylbutyl)-1,3-benzoxazole-3-carboxamide] | time and dose-dependent inhibition of AC activity | time and dose-dependent inhibition of AC activity | concentration dependent reduction in AC activity | did not cause inhibition of MAG-hydrolysing activity; also recorded: no inhibitory activity |  |
| O=C(NCCCCc1ccccc1)n1c(=O)oc2cc(Br)ccc21 [Example 7, 6-Bromo-2-oxo-N-(4-phenylbutyl)-1,3-benzoxazole-3-carboxamide] |  |  |  |  | time-dependent inhibition of AC activity in lungs |
